Patent publication US20060106106A1, “Beta-hydroxyphenylalkylamines and their use for treating glaucoma” (priority 2002, published 2006)
Where a name gives a salt, the structure may show the parent alone.

How the values were obtained:
[1] = molecular target: T1, 5-HT2A (Rattus norvegicus, UniProt P14842); assay: 5-HT2 Functional Assay: [Ca2+]i Mobilization (FLIPR) in A7r5 cells; format: cell-based; conditions: for Emax: A7r5 cells, FLIPR, percentage of maximum 5-HT-induced response, read-out: 5-HT2A % Emax (Ca+2 Assay)
T1 construct: [^3H]myo-inositol-labeled A7r5 rat vascular smooth muscle cells; endogenous in cells; host or cells: A7r5 rat vascular smooth muscle cells
T1 sequence (P14842 whole entry): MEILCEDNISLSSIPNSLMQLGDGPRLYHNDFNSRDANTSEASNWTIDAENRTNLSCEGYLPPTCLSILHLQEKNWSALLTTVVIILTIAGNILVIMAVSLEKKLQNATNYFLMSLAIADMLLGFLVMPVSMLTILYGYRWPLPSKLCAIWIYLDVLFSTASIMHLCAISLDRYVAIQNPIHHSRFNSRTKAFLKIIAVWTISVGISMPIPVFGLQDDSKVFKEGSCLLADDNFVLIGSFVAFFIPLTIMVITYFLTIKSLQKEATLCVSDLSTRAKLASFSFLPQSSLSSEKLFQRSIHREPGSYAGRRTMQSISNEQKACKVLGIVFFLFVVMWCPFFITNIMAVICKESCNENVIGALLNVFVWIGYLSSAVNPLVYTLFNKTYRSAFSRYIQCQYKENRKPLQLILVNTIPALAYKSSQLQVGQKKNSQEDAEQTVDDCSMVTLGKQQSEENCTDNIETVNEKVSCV
Description: 5-HT2 Functional Assay: [Ca^2+]i Mobilization
The receptor-mediated mobilization on intracellular calcium ([Ca^2+]i) was studied using the Fluorescence Imaging Plate Reader (FLIPR) instrument. Rat vascular smooth muscle cells, A7r5, were grown in a normal media of DMEM/10% FBS and 10 μg/mL gentamycin. Confluent cell monolayers were trypsinized, pelleted, and re-suspended in normal media. Cells were seeded in a 50 μL volume at a density of 20,000 cells/well in a black wall, 96-well tissue culture plate and grown for 2 days.
On the day of the experiment, one vial of FLIPR Calcium Assay Kit dye was re-suspended in 50 mL of a FLIPR buffer consisting of Hank's Balanced Salt Solution (HBSS), 20 mM HEPES, and 2.5 mM probenecid, pH 7.4. Cells were loaded with the calcium-sensitive dye by addition of an equal volume (50 μL) to each well of the 96-well plate and incubated with dye for 1 h at 23° C.
Compounds were diluted 1:50 in 20% DMSO/20% Ethanol. For “hit” screening, compounds were further diluted 1:10 in FLIPR buffer and tested at a final concentration of 10 μM.
The compound plate and cell plate were placed in the FLIPR instrument. At the beginning of an experimental run, a signal test was performed to check the basal fluorescence signal from the dye-loaded cells and the uniformity of the signal across the plate. The basal fluorescence was adjusted between 8000-12000 counts by modifying the exposure time, the camera F-stop, or the laser power. Instrument settings for a typical assay were the following: laser power 0.3-0.6 W, camera F-stop F/2, and exposure time 0.4 sec. An aliquot (25 μL) of the test compound was added to the existing 100 μL dye-loaded cells at a dispensing speed of 50 μL/sec. Fluorescence data were collected in real-time at 1.0 sec intervals for the first 60 secs and at 6.0 sec intervals for an additional 120 secs. Responses were measured as peak fluorescence intensity minus basal and where appropriate were expressed as a percentage of a maximum 5-HT-induced response.

[2] = molecular target: T1, 5-HT2A; assay: 5-HT2 Functional Assay: Phosphoinositide (PI) Turnover Assay in A7r5 cells; format: cell-based; conditions: for Emax: A7r5 cells, relative to 5-HT (set at 100%)
Description: 5-HT2 Functional Assay: Phosphoinositide (PI) Turnover Assay
The relative agonist activity of serotonergic compounds at the 5-HT2 receptor can be determined in vitro using the ability of the compounds to stimulate the production of [^3H]inositol phosphates in [^3H]myo-inositol-labeled A7r5 rat vascular smooth muscle cells by their ability to activate the enzyme phospholipase C. These cells are grown in culture plates, maintained in a humidified atmosphere of 5% CO2 and 95% air and fed semi-weekly with Dulbecco's modified Eagle medium (DMEM) containing 4.5 g/L glucose and supplemented with 2 mM glutamine, 10 μg/ml gentamicin, and 10% fetal bovine serum. For the purpose of conducting the phosphoinositide (PI) turnover experiments, the A7r5 cells are cultured in 24-well plates as previously [J. Pharmacol. Expt. Ther. 286, 411 (1998)]. Confluent cells are exposed for 24-30 hrs to 1.5 μCi [^3H]-myo-inositol (18.3 Ci/mmol) in 0.5 ml of serum-free medium. Cells are then rinsed once with DMEM/F-12 containing 10 mM LiCl prior to incubation with the test agent (or solvent as the control) in 1.0 mL of the same medium for 1 hr at 37° C., after which the medium is aspirated and 1 ml of cold 0.1 M formic acid added to stop the reaction. The chromatographic separation of [^3H]-inositol phosphates ([^3H]-IPs) on an AG-1-X8 column is performed as previously described [J. Pharmacol. Expt. Ther. 286, 411 (1998)] with sequential washes with H2O and 50 mM ammonium formate, followed by elution of the total [^3H]-IPs fraction with 1.2 M ammonium formate containing 0.1 M formic acid. The eluate (4 mL) is collected, mixed with 15 ml scintillation fluid, and the total [^3H]-IPs determined by scintillation counting on a beta-counter. Concentration-response data are analyzed by the sigmoidal fit function of the Origin Scientific Graphics software (Microcal Software, Northampton, Mass.) to determine agonist potency (EC50 value) and efficacy (Emax). Serotonin (5-HT) is used as a positive control (standard) agonist compound and the efficacy of test compounds is compared to that of 5-HT (set at 100%).

| SMILES | melting point [°C] | Emax [1] [%] | Emax [2] [%] | EC50 [1] [nM] | EC50 [2] [nM] |
| --- | --- | --- | --- | --- | --- |
| COc1cc([C@H](O)[C@@H](C)N)c(OC)cc1Br (as salt: hydrochloride) [Compound 8, (+)-erythro-(1S,2R)-1-Hydroxy-1-(4-bromo-2,5-dimethoxyphenyl)-2-aminopropane Hydrochloride] | 194 to 196 | – | – | – | – |
| COc1cc([C@@H](O)[C@@H](C)N)c(OC)cc1Br (as salt: hydrochloride) [Compound 11, (−)-threo-(1R,2R)-1-Hydroxy-1-(4-bromo-2,5-dimethoxyphenyl)-2-aminopropane Hydrochloride] | 214 to 215 | – | – | – | – |
| CC[C@H](N)[C@H](O)c1cc(OC)c(Br)cc1OC (as salt: oxalate) [Compound 7, (−)-erythro-(1R,2S)-1-Hydroxy-1-(4-bromo-2,5-dimethoxyphenyl)-2-aminobutane Oxalate] | 203 to 205 | – | – | – | – |
| COc1cc([C@@H](OC)[C@H](C)N)c(OC)cc1Br (as salt: oxalate) [Compound 12, (−)-erythro-(1R,2S)-1-Methoxy-1-(4-bromo-2,5-dimethoxyphenyl)-2-aminopropane Oxalate] | 186 to 188 | – | – | – | – |
| COc1cc(C(O)CN)c(OC)cc1CCCc1ccccc1 (racemic) (as salt: hydrochloride) [Compound 5, (±)1-Hydroxy-1-[4-(3-phenylpropyl)-2,5-dimethoxyphenyl]-2-aminoethane Hydrochloride] | 174 to 176 | – | – | – | – |
| COc1cc(C(O)CN)c(OC)cc1CCCc1ccccc1 (racemic) [Compound 5, (±)1-Hydroxy-1-[4-(3-phenylpropyl)-2,5-dimethoxyphenyl]-2-aminoethane Hydrochloride, reference compound] | – | 3.1 | – | – | – |
| COc1cc(C(O)C(C)N)c(OC)cc1Br (single isomer, unassigned; (+)) (as salt: hydrochloride) [Compound 10] | 213 to 214 | – | – | – | – |
| COc1cc(C(O)C(C)N)c(OC)cc1Br (single isomer, unassigned; (+)) [Compound 10, Hydrochloride] | – | 16 | 47 | – | – |
| COc1cc(C(OC)C(C)N)c(OC)cc1Br (single isomer, unassigned; (+)) [Compound 15] | – | 31 | – | 1410 | – |
| COc1ccc(OC)c(C(O)C(C)N)c1 (stereo not shown) [Compound 1, reference compound] | – | 9 | – | – | – |
| COc1cc(C(O)CN)c(OC)cc1Br (stereo not shown) [Compound 6, reference compound] | – | 7.8 | – | – | – |
| CC[C@H](N)[C@H](O)c1cc(OC)c(Br)cc1OC [Compound 7, (−)-erythro-(1R,2S)-1-Hydroxy-1-(4-bromo-2,5-dimethoxyphenyl)-2-aminobutane Oxalate, reference compound] | – | 4.8 | – | – | – |
| COc1cc([C@H](O)[C@@H](C)N)c(OC)cc1Br [Compound 8, (+)-erythro-(1S,2R)-1-Hydroxy-1-(4-bromo-2,5-dimethoxyphenyl)-2-aminopropane Hydrochloride] | – | 20 | 57 | – | 8000 |
| COc1cc([C@@H](O)[C@H](C)N)c(OC)cc1Br [Compound 9, (−)-erythro-(1R,2S)-1-Hydroxy-1-(4-bromo-2,5-dimethoxyphenyl)-2-aminopropane Hydro-chloride] | – | 22 | 68 | 84 | 1180 |
| COc1cc([C@@H](O)[C@@H](C)N)c(OC)cc1Br [Compound 11, (−)-threo-(1R,2R)-1-Hydroxy-1-(4-bromo-2,5-dimethoxyphenyl)-2-aminopropane Hydrochloride] | – | 54 | 102 | 96.9 | 1130 |
| COc1cc([C@@H](OC)[C@H](C)N)c(OC)cc1Br [Compound 12, (−)-erythro-(1R,2S)-1-Methoxy-1-(4-bromo-2,5-dimethoxyphenyl)-2-aminopropane Oxalate] | – | 54 | 100 | 1330 | 1080 |
| COc1cc([C@H](OC)[C@@H](C)N)c(OC)cc1Br [Compound 13, (+)-erythro-(1S,2R)-1-Methoxy-1-(4-bromo-2,5-dimethoxyphenyl)-2-aminopropane Oxalate] | – | 49 | 117 | 5040 | 4610 |
| COc1cc([C@@H](OC)[C@@H](C)N)c(OC)cc1Br [Compound 14, (−)-thero-(1R,2R)-1-Methoxy-1-(4-bromo-2,5-dimethoxyphenyl)-2-aminopropane Oxalate] | – | 93 | 111 | 126 | 42.4 |
